Patent publication US20070042963A1, “Therapeutic peptides” (Medarex, Inc., priority 2000, published 2007)

Key:
Mab 64G12 = test: ELISA binding of peptides to Mab 64G12; set-up: species or system mouse; details: biotin-SGSG-peptide on streptavidin plates, peptide 20 μM, antibody 1 μg/ml
Description: Binding of Peptides to Mab 64G12
The 11 mer (SEQ ID no. 2) and a number of modified versions of that polypeptide derived by deletion or substitution were tested for ability to bind Mab 64G12 by ELISA. […]. The peptides were biotinylated at the N-terminus with a spacer sequence SGSG between the peptide and the biotin, i.e. biotin-SGSG-peptide.
ELISA screening for ability to bind Mab 64G12 was carried out using Nunc Maxisorb plates coated with Streptavidin 5 μg/ml, 100 μl/well overnight at 37° C. The plates were then blocked with 200 μl/well of PBS containing 0.1% Tween 20, 1% sodium caseinate (CAST) for 1 hour at 20° C. Peptides were dissolved by adding 50 μl of DMSO and 0.6 ml of 40% acetonitrile to each tube. For peptide coating, 100 μl of PBS, 0.1% Tween 20 (PT) were added to each well, followed by 2 μl of each peptide solution (final peptide concentration 20 μM). After 30 mins, the monoclonal antibody was added at 1 μg/ml in PT for 1 hour at 20° C. The plates were washed and 100 μl/well of a 1/2000 dilution of horseradish peroxidase labeled goat anti-mouse IgG (H+L) in CAST plus 1% sheep serum (CASS) was added for 1 hour at 20° C. After washing, 100 μl of ABTS substrate was distributed to all wells. Absorbance was measured after 10 and 45 mins incubation on a plate reader using dual wavelength ([…]) to correct for background.

[1] = test system: anti-IFN-R antibody (34F10); test: Effect of peptide on binding of non-neutralizing anti-IFN-R antibody 34F10 to the IFN-R; details: epitope distant from the ligand binding site
IFN-R on Daudi cells = test: Inhibition of Type 1-IFN binding to the IFN-R on Daudi cells: 125I-IFN-α2 binding in presence of Mab 64G12 with or without peptide; details: Mab 64G12 2 μg, 125I-labeled human IFN-α2 0.13 nM, 2 hours at 4° C.
Description: Inhibition of Type 1-IFN Binding to the IFN-R on Daudi Cells.
Cultures of exponentially growing Daudi cells (2 million cells/0.2 ml RPMI 1640 medium with 10% fetal calf serum) were treated with: Mab 64G12 (2 μg), alone or together with: (i) a soluble affinity purified recombinant polypeptide corresponding to amino acids 1 to 427 of the extracellular domain region sequence of the IFNAR1 chain as reported by Uze et al., 1990, Cell, 60, 224-234 (prepared as described in Benoit et al., 1993, J. Immunol., 150, 707-716 and Published International Application WO 92/18626 and purified first on a NI-NTA agarose column (Qiagen) and subsequently eluted with 300 mM imidazole. The eluted partially purified soluble IFNAR1 was then applied to a 5.0 ml 64G12 Mab sepharose column and eluted with 0.1 M glycine, pH 2.8. The eluted IFNAR1 was pure as determined by SDS-PAGE under denaturing conditions) or (ii) the peptide of SEQ ID no. 2 (the 11 mer). This was followed by the addition of ^125I-labeled human IFN-α2 (iodination as described by Mogensen et al., 1981, Int. J. Cancer, 28, 575-582; 90000 cpm, 0.13 nM) and incubation for 2 hours at 4° C. The cells were then washed 3 times with culture medium containing 1% fetal calf serum and the cell pellet counted in a gamma counter.

binding to Mab 64G12 by ELISA (Mab 64G12) | ability of antibody 34F10 to bind to the IFN-R [1] | Substance | IFN binding to the IFN-R in the presence of Mab 64G12 (IFN-R on Daudi cells)
specifically bind | – | FSSLKLNVY (Modified peptide from Hu IFNAR1 receptor) [9 mer] | –
only background binding | – | KLNVYE (Modified peptide from Hu IFNAR1 receptor) [Peptide 7] | –
specifically bind | does not affect | NFSSLKLNVYE (Modified peptide from Hu IFNAR1 receptor) [Peptide 12] | restored IFN-binding to a high degree
